This note sets out measurements from ChEMBL document CHEMBL1157050, “Synthesis and cytotoxic evaluation of N2-benzylated quaternary beta-carboline amino acid ester conjugates” (Eur J Med Chem, 2010).

Holding throughout (type): functional, cell-based
The test system of assay [1] is KB. The experiment in a line: Cytotoxicity against human KB cells by MTT assay. On the technique in general: Tetrazolium dyes change colour on reduction, which living cells bring about.
Assay [2] deals with 786-0. The experiment in a line: Cytotoxicity against human 786-0 cells by MTT assay.
The test system of assay [3] is A-375. The experiment in a line: Cytotoxicity against human A375 cells by MTT assay.
Assay [4] relates to 769-P. Put plainly: Cytotoxicity against human 769-P cells by MTT assay.
Assay [5] is described as follows: Cytotoxicity against human BGC cells by MTT assay.

In the case of `CCCCn1c2ccccc2c2cc(C(=O)N[C@@H](Cc3ccc(O)cc3)C(=O)OC)ncc21`, the IC50 in assay [1], in assay [2], in assay [3], in assay [4] and in assay [5] was over 200 µM throughout.
Take `CCOC(=O)[C@H](CCSC)NC(=O)c1cc2c3ccccc3n(Cc3ccccc3)c2cn1`: the IC50 in assay [1], in assay [2], in assay [3], in assay [4] and in assay [5] was over 200 µM throughout.
On to `CCOC(=O)[C@H](Cc1ccccc1)NC(=O)c1cc2c3ccccc3n(Cc3ccccc3)c2cn1`, for which the IC50 in assay [1], in assay [2], in assay [3], in assay [4] and in assay [5] was over 200 µM in each case.
Regarding `CC(C)[C@H](NC(=O)c1cc2c3ccccc3n(CCCc3ccccc3)c2cn1)C(=O)O`, the IC50 (commonly the point on the concentration scale where inhibition reaches its midpoint) in assay [1] stood at 106 µM; in assay [2], 84.6 µM; in assay [3], 58 µM; in assay [4] it was 78.3 µM; in assay [5], 139 µM.
In the case of `CSCC[C@H](NC(=O)c1cc2c3ccccc3n(CCCc3ccccc3)c2cn1)C(=O)O`, the IC50 came out at 96.6 µM in assay [1]; 70 µM in assay [2]; 58.9 µM in assay [3]; 116 µM in assay [4]; 136 µM in assay [5].
As to `CCCCn1c2ccccc2c2cc(C(=O)N[C@@H](C)C(=O)OC)ncc21`, the IC50 was over 200 µM in assay [1]; over 200 µM in assay [2]; over 200 µM in assay [3]; 27.2 µM in assay [4]; over 200 µM in assay [5].
As for `CCCCn1c2ccccc2c2cc(C(=O)N[C@H](C(=O)OC)C(C)C)ncc21`, the half-maximal inhibitory concentration (IC50) in assay [1], in assay [2], in assay [3], in assay [4] and in assay [5] was over 200 µM throughout.
As to `COC(=O)[C@H](C)NC(=O)c1cc2c3ccccc3n(CCCc3ccccc3)c2cn1`, the IC50 is over 200 µM in assay [1]; over 200 µM in assay [2]; over 200 µM in assay [3]; over 200 µM in assay [4]; 148 µM in assay [5].
As to `CCOC(=O)[C@@H](NC(=O)c1cc2c3ccccc3n(CCCc3ccccc3)c2cn1)C(C)C`, the IC50 in assay [1], in assay [2], in assay [3], in assay [4] and in assay [5] was over 200 µM throughout.
Turning to `O=C(N[C@@H](Cc1ccccc1)C(=O)O)c1cc2c3ccccc3n(CCCc3ccccc3)c2cn1`, the IC50 in assay [1] was 38.8 µM; in assay [2], 52.7 µM; in assay [3] it was 33.8 µM; in assay [4], 8 µM; in assay [5] it was 76.1 µM.
Turning to `CCCCn1c2ccccc2c2cc(C(=O)N[C@@H](Cc3ccccc3)C(=O)OCC)[n+](Cc3ccccc3)cc21`, the IC50 worked out at 11.3 µM in assay [1]; 15 µM in assay [2]; 41.7 µM in assay [3]; 19.2 µM in assay [4]; 21.4 µM in assay [5].
The matching figures for `CCOC(=O)[C@H](Cc1ccccc1)NC(=O)c1cc2c3ccccc3n(Cc3ccccc3)c2c[n+]1Cc1ccccc1`: 51.4 µM, 69.4 µM, 25.8 µM, 13.5 µM and 92.5 µM.
Turning to `CCOC(=O)[C@@H](NC(=O)c1cc2c3ccccc3n(CCCc3ccccc3)c2c[n+]1Cc1ccccc1)C(C)C`, the IC50 is 12.5 µM in assay [1]; 4 µM in assay [2]; 10.4 µM in assay [3]; 14 µM in assay [4]; 17.8 µM in assay [5].
In the same order, the values of `CCOC(=O)[C@H](CCSC)NC(=O)c1cc2c3ccccc3n(CCCc3ccccc3)c2c[n+]1Cc1ccccc1` are 9.4 µM, 10.1 µM, 7.3 µM, 7.6 µM and 12 µM.
Take `CCOC(=O)[C@H](Cc1ccccc1)NC(=O)c1cc2c3ccccc3n(CCCc3ccccc3)c2c[n+]1Cc1ccccc1`: the IC50 in assay [1] is 18.2 µM; in assay [2] it was 23.4 µM; in assay [3] it was 21.3 µM; in assay [4], 22.9 µM; in assay [5], 23.7 µM.
As to `CCCCn1c2ccccc2c2cc(C(=O)N[C@H](C(=O)OCC)C(C)C)[n+](Cc3ccccc3)cc21`, the IC50 in assay [1] was found to be 28.4 µM; in assay [2], 14.4 µM; in assay [3], 22.5 µM; in assay [4], 13.7 µM; in assay [5], 44.2 µM.
Regarding `CCCCn1c2ccccc2c2cc(C(=O)N[C@@H](CCSC)C(=O)OCC)[n+](Cc3ccccc3)cc21`, the IC50 came to 10.8 µM in assay [1]; 1.7 µM in assay [2]; 8.2 µM in assay [3]; 7.5 µM in assay [4]; 13.4 µM in assay [5].
In the same order, the values of `CCOC(=O)[C@@H](NC(=O)c1cc2c3ccccc3n(Cc3ccccc3)c2c[n+]1Cc1ccccc1)C(C)C` are 25.3 µM, 10.8 µM, 15.8 µM, 12.5 µM and 21.9 µM.
In the same order, the values of `CCCCn1c2ccccc2c2cc(C(=O)N[C@@H](CCSC)C(=O)O)ncc21` are over 200 µM, over 200 µM, over 200 µM, 105 µM and over 200 µM.
In the same order, the values of `CCCCn1c2ccccc2c2cc(C(=O)N[C@@H](Cc3ccccc3)C(=O)O)ncc21` are 155 µM, 191 µM, 160 µM, 114 µM and over 200 µM.
`CCCCn1c2ccccc2c2cc(C(=O)N[C@@H](Cc3ccc(O)cc3)C(=O)O)ncc21`: the IC50 in assay [1] is over 200 µM; in assay [2], over 200 µM; in assay [3] it was 121 µM; in assay [4], over 200 µM; in assay [5], over 200 µM.
Turning to `CSCC[C@H](NC(=O)c1cc2c3ccccc3n(Cc3ccccc3)c2cn1)C(=O)O`, the IC50 was 135 µM in assay [1]; over 200 µM in assay [2]; 156 µM in assay [3]; 145 µM in assay [4]; over 200 µM in assay [5].
As to `CCCCn1c2ccccc2c2cc(C(=O)N[C@@H](CCSC)C(=O)OCC)ncc21`, the IC50 in assay [1], in assay [2], in assay [3], in assay [4] and in assay [5] was over 200 µM each time.
For `CCCCn1c2ccccc2c2cc(C(=O)N[C@@H](Cc3ccccc3)C(=O)OC)ncc21`, the IC50 in assay [1], in assay [2], in assay [3], in assay [4] and in assay [5] was over 200 µM in each case.
For `CCCCn1c2ccccc2c2cc(C(=O)N[C@@H](CCSC)C(=O)OCC)nc(C)c21`, the IC50 in assay [1], in assay [2], in assay [3], in assay [4] and in assay [5] was over 200 µM throughout.
`CCCCn1c2ccccc2c2cc(C(=O)N[C@@H](Cc3ccccc3)C(=O)OCC)nc(C)c21`: the IC50 in assay [1], in assay [2], in assay [3], in assay [4] and in assay [5] was over 200 µM throughout.
With `C[C@H](NC(=O)c1cc2c3ccccc3n(CCCc3ccccc3)c2cn1)C(=O)O`, the IC50 in assay [1] is 179 µM; in assay [2], 78.3 µM; in assay [3], 96.3 µM; in assay [4], 120 µM; in assay [5] it was 162 µM.
With `CCOC(=O)[C@H](CCSC)NC(=O)c1cc2c3ccccc3n(CCCc3ccccc3)c2cn1`, the IC50 in assay [1] is 176 µM; in assay [2], over 200 µM; in assay [3] it was over 200 µM; in assay [4] it was over 200 µM; in assay [5] it was over 200 µM.
For the compound `CCOC(=O)[C@H](Cc1ccccc1)NC(=O)c1cc2c3ccccc3n(CCCc3ccccc3)c2cn1`, the IC50 in assay [1] was 89.2 µM; in assay [2], over 200 µM; in assay [3] it was over 200 µM; in assay [4], 187 µM; in assay [5], over 200 µM.
Take `CCCCn1c2ccccc2c2cc(C(=O)N[C@@H](Cc3ccccc3)C(=O)OCC)ncc21`: the IC50 was 113 µM in assay [1]; over 200 µM in assay [2]; over 200 µM in assay [3]; 32.5 µM in assay [4]; over 200 µM in assay [5].
For the compound `CC(=O)O[C@H]1C(=O)[C@@]2(C)[C@H]([C@H](OC(=O)c3ccccc3)[C@]3(O)C[C@H](OC(=O)[C@H](O)[C@@H](NC(=O)c4ccccc4)c4ccccc4)C(C)=C1C3(C)C)[C@]1(OC(C)=O)CO[C@@H]1C[C@@H]2O` [PACLITAXEL], the IC50 is 0.08 µM in assay [1]; under 0.08 µM in assay [2]; 0.81 µM in assay [3]; 7.1 µM in assay [4]; 1.5 µM in assay [5].
